Entries after “also recorded” stand apart in the source; their conditions may differ.
What was measured:
fibrin clots = target: T1, fibrin clots (Homo sapiens, UniProt P02671+P02675+P02679); assay: Microfluidic model of vascular embolism (fibrin clot lysis); type: biochemical; conditions: 50 ng/ml tPA, same flow conditions
T1 construct: purchased Enzyme Research Laboratories, IN (fibrinogen, α-thrombin); Cell Sciences, MA (plasminogen)
T1 sequence (P02671 36-629 limits assumed): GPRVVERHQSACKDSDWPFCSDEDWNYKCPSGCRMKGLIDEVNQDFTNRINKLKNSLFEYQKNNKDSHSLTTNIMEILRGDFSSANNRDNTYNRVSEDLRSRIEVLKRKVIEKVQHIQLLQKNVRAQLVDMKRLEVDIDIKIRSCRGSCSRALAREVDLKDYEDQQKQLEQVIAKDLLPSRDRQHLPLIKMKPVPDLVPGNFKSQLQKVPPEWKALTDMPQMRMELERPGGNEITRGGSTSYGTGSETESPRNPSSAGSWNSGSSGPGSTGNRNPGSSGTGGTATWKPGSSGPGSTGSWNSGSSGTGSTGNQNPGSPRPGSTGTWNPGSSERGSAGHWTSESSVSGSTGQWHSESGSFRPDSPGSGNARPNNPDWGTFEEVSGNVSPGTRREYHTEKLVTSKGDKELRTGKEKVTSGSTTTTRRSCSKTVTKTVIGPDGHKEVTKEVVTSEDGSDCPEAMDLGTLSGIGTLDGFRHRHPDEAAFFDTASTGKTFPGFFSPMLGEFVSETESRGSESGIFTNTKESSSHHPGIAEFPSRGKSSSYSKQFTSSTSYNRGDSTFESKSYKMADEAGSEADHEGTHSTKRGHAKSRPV
T1 sequence (P02675 45-491 limits assumed): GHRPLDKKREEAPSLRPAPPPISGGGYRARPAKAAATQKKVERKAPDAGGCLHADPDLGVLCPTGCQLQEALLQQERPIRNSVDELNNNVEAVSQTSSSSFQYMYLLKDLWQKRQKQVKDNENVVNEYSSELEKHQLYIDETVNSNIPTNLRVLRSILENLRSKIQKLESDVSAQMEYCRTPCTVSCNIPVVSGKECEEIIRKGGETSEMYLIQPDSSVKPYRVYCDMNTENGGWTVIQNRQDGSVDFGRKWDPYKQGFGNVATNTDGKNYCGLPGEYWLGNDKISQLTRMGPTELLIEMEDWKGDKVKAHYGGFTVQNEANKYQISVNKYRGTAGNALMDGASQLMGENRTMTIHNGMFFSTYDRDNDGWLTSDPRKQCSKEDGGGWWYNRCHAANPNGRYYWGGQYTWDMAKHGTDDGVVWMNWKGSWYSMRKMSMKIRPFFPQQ
T1 sequence (P02679 27-437 isoform P02679-2 limits assumed): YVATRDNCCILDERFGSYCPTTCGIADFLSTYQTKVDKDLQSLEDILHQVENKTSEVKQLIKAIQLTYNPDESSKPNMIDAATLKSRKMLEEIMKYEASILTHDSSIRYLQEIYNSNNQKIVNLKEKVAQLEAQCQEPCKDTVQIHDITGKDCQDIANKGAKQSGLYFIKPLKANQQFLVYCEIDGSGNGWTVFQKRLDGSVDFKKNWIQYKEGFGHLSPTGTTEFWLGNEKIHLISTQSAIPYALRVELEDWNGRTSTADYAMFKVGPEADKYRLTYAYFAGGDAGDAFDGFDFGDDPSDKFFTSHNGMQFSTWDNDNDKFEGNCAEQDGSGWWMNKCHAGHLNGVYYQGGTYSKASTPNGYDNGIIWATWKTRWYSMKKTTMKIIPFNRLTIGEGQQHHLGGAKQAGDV
From the text: Microfluidic devices with a narrowed cross-sectional area (80 μm high×0.5 mm wide×200 mm long) were fabricated using soft lithography as described above. Fibrin clots formed as described below that were infused into the main channel lodged and obstructed the flow in these smaller channels. A solution of tPA or tPA coated SA-NTs was infused at a flow rate corresponding to a shear stress of 10 dyne/cm2 in an unobstructed channel. Prior to infusion of the tPA solutions, bovine plasminogen (Cell Sciences, MA) was added to a final concentration of 2.2 μM (30). During the fibrinolysis process, the fibrin clot sizes were monitored in real-time (images acquired every 30 sec) on an inverted Zeiss microscope.
(§1) Fibrin clots were formed by adding CaCl2 (20 mM) and human α-thrombin (1 units/ml final concentrations, Enzyme Research Laboratories, IN) to human fibrinogen (5 mg/ml, Enzyme Research Laboratories, IN), as previously described (23, 31). This solution was immediately added drop-wise to a solution of canola oil with Span-80 (0.05%). The emulsion was mixed at 350 rpm for 4 hr and centrifuged (500 g, 5 min), followed by repeated washing in ethanol and water. The diameter of the resulting fibrin beads was determined by optical microscopy to be ˜250 μm. By adjusting the mixing speed in the described protocol, fibrin beads of smaller defined sizes were produced.

[1] = system: thrombus in FeCl3-injured mesenteric arteries; assay: Mouse ferric chloride arterial injury (thrombosis) model; type: in vivo; conditions: bolus, same tPA dose (50 ng)
Description: A previously described model was used with minor modifications (16). In brief, male C57BL/6 mice (3-4 weeks old) were anesthetized with 2.5% tribromoethanol (0.15 ml/10 g) and injected with fluorescently labeled platelets (calceinRed/Orange, ˜1×10^9 platelets/kg). An incision was made through the abdominal wall to expose the mesentery and arterioles (˜100 μm in diameter) were visualized using a Zeiss Axiovert 135-inverted microscope (objectives: 10× and 32×, Carl Zeiss Microlmaging, Inc.) and recorded on videotape. Whatman filter paper saturated with FeCl3 (10%) solution was applied topically for 5 min, which caused denudation of the endothelium. […] Following this bolus injection, the vessels were monitored until full occlusion occurred (blood flow stopped) and lasted for more than 10 seconds. The shear rate was calculated using an optical Doppler velocity meter (Microcirculation Research Institute, Texas A&M College of Medicine, College Station, Tex.) (17). […]

[2] = system: fibrin clots in pulmonary arteries; assay: Ex vivo mouse pulmonary embolism model (lung ventilation-perfusion)
Description: as §1
6-8 week-old C57BL/6 male mice (Jackson Laboratory, Bar Harbor, Me.) were weighed and anesthetized with Avertin (200 mg/kg IP). The trachea was incised via surgical tracheotomy, and cannulated with a blunted 22G stainless steel needle tip. The lungs were subsequently ventilated at a rate of 60 breaths/min, with a Peak Inspiratory Pressure (Pip) of 10 cm H2O and a Positive End Expiratory Pressure (Peep) of 3 cmH2O with compressed air using a mouse ventilator (VCM-R, Hugo Sachs Elektroniks, Germany). Ex vivo ventilation and perfusion of the mouse lung was performed using an IL1 ex vivo mouse lung ventilation-perfusion system (Harvard Apparatus, Natick, Mass.), (32). Following initiation of mechanical ventilation, the chest was opened via thoracotomy, and heparin (100 IU) was injected into the right ventricle. […] A suture was placed around the pulmonary artery and aorta. Cannulae made from polyethylene tubing (PE90 (0.86 mm ID, 1.7 mm OD)) were placed in the pulmonary artery (PA) and left atrium (LA), and lungs were perfused with RPMI-1640 with 4% Bovine Albumin (PROBUMIN™ Reagent Grade, Billerica, Mass.) and 0.7 g NaCl/500 ml via a roller pump (ISM 834C, Ismatec SA, Switzerland) set at a constant flow rate of 0.5 ml/min in a recirculating system with a system volume of 6 ml. Perfusate and lung temperatures were maintained at 37° C. by housing the entire ex-vivo ventilation perfusion system inside a standard cell incubator without CO2 (Forma Scientific, Ohio). Humidity was maintained in the range […]. Pulmonary arterial and left atrial pressures and airway flow and pressures were recorded with dedicated Type 379 vascular pressure and DLP2.5 flow and MPX Type 399/2airway pressure transducers and TAM-A amplifiers (Hugo Sachs Elektroniks, Germany). Vascular pressures were zeroed at the mid lung level prior to each experiment and recorded using Polyview16© software (Grass Technologies, West Warwick, R.I.). Prior to injection of experimental fibrin clots (prepared as above), the measured pressures were allowed to stabilize and remain stable for a period of more than 10 minutes. A solution of fibrin clots suspended in perfusion medium was infused at a flow rate of 0.1 ml/min and mixed with the regular perfusion line entering the pulmonary artery. The fibrin clot suspension was infused until the pulmonary artery pressure increased to ˜three-fold higher than the baseline. The system was then allowed to equilibrate and remain stable for at least 10 minutes. Next, tPA-coated SA-NTs or free soluble tPA was added to the main perfusion line and circulated through the perfusion system. As in the microfluidic device experiments, when tPA was perfused, plasminogen was added to obtain a final concentration of 2.2 μM. Pulmonary artery and vein pressures were acquired continuously during the perfusion period. […]

reduction in clot size (fibrin clots): < 5%
Substance: tissue plasminogen activator [free tPA]
delay of time to full vascular occlusion [1]: did not produce any significant delay; also recorded: neither addition of free tPA, pre-dissociated tPA-NPs, nor heat-fused tPA-NP microaggregates (that do not dissociate in high shear) produced any detectable effects | effect on pulmonary artery pressure ([2]; 50 ng/ml): did not reduce pulmonary artery pressure | effect on pulmonary artery pressure ([2]; 50 ng/ml, listed as soluble tPA): failed to produce any significant response | effect on pulmonary artery pressure ([2]; 500 ng/ml (ten times higher dose)): did not reduce pulmonary artery pressure | effect on pulmonary artery pressure ([2]; 500 ng/ml (ten times higher dose), listed as soluble tPA): failed to produce any significant response | effect on pulmonary artery pressure ([2]; 5,000 ng/ml (100-fold higher dose)): produced similar effects

— patent US20150147276A1, “NANOTHERAPEUTICS FOR DRUG TARGETING” (PRESIDENT AND FELLOWS OF HARVARD COLLEGE, priority 2012, published 2015)
